Results as given in patent US20240173435A1, “GENE DELIVERY FOR PREVENTION AND TREATMENT OF BALDNESS” (NEW JERSEY INSTITUTE OF TECHNOLOGY, priority 2022, published 2024).

How the values were obtained:
[1] = system: Androgen Receptor gene; assay: Knockout percentage by Sanger sequencing and ICE analysis of GFP-positive sorted cells; format: cell-based, human; settings: GFP-positive sorted HEK 293T cells, ICE analysis, n=5
Procedure: Cas9 mRNA was purchased from Tri-Link Biotechnologies. Guide RNAs, which target the 1st coding exon in both human and mouse AR genes, were designed so that any frameshift mutation would result in early termination of translation. All gRNAs were obtained from Synthego with “end-modified” synthesis where the first and last three bases of these gRNA were synthesized using 2′-O-Methyl-nucleosides and joined via 3′ phosphorothioate bonds.
The in vitro transfection efficacy was evaluated in the HEK 293 cell line by delivering plasmid PX458 integrated with GFP, Cas9 and gRNA sequence, utilizing nanoparticles. Briefly, 1×10^5 HEK 293 cells were seeded into each well of 24-well plate with 0.5 mL complete culture medium and incubated at 37° C. overnight to allow cell attachment. Then the LNPs were seeded at 24 h. The transfected GFP positive cells were observed under All-in-One Fluorescence Microscope (BZ-X710, Keyence, Japan) at predetermined time points with brightfield, fluorescent and merged channels using 10×PanFluor lens (Nikon, Japan). […] The cell pellets were resuspended in 0.5 mL PBS for flow cytometric analysis using a BD LSR II flow cytometer (BD Biosciences, San Jose, CA) and the data were analyzed using FACSDiva software (BD Biosciences, San Jose, CA). […]

[2] = Ionizable cationic lipid library screening, in vitro delivery of luciferase mRNA (mLuc); format: cell-based; settings: 18*8 library, lipid:DOPE:cholesterol:DMG-PEG 50:10:38.5:1.5
From the text: An ionizable cationic lipid is generally composed of three parts: (1) hydrophilic headgroups containing one or multiple ionizable amines for condensing negatively charged mRNA; (2) hydrophobic hydrocarbon chains capable of promoting self-assembly and phospholipid membrane fusion; (3) degradable ester linkers connecting the headgroups with hydrocarbon chains to potentially lower systemic cytotoxicity (FIG. 8b). A new library of ionizable cationic lipids is designed, where the ionizable amine headgroups originated from different amino alcohols and the hydrocarbon lipid chains were derived from commercially available lipid acids. Through CALB enzyme-assisted reaction, the hydroxyl groups were reacted with carboxylic acids via one-step high-efficiency esterification (FIG. 8a) and an 18*8 library of lipid-like materials was synthesized by varying amino alcohols and lipid acids (ACS Nano, 16 (11) 18936-18950). Preliminarily, these lipid-like materials with DOPE, cholesterol, and DMG-PEG were fabricated at a molar ratio of 50:10:38.5:1.5, which was the most widely used formulation to form LNPs and delivered luciferase encoded mRNA (mLuc) in vitro to generate a luciferase expression heat map of lipid-like materials.

Compound	knockout (percentage of transfected cells showing insertion or deletion) [1] [%]	luciferase expression rank in lipid library screen [2]
GAGCGTGCGCGAAGCGATCC (guide GAGCGUGCGCGAAGCGAUCC; listed as RNA, chemistry not fully specified) [sgRNA2, PAM AGG, strand +]	~51	
CCCCC/C=C/C/C=C/CCCCCCCC(=O)OCCN1CCN(CCOC(=O)CCCCCCC/C=C/C/C=C/CCCCC)CC1 [AA3-DLin]		top-performing
TGATCCAGAACCCGGGCCCC (guide UGAUCCAGAACCCGGGCCCC; listed as RNA, chemistry not fully specified) [sgRNA1, PAM AGG, strand +]	~76	
